Measured values as given in ChEMBL document CHEMBL4311976, “Design, synthesis and biological evaluation of novel 7H-pyrrolo[2,3-d]pyrimidine derivatives as potential FAK inhibitors and anticancer agents” (Eur J Med Chem, 2019).

Key:
[1] = species: Homo sapiens; experiment: Inhibition of recombinant full length His-tagged human PKA catalytic domain expressed in Escherichia coli at 0.5 uM using Ser/Thr 01 as substrate in presence of ATP at Km concentration after 1 hr by Z'-LYTE assay relative to control
[2] = system: A549; experiment: Induction of apoptosis in human A549 cells after 72 hrs by Annexin V-FITC/propidium iodide staining-based flow cytometric analysis; format: functional, cell-based
[3] = system: A549; experiment: Induction of apoptosis in human A549 cells assessed as necrotic cells at 3 uM after 72 hrs by Annexin V-FITC/propidium iodide staining-based flow cytometric analysis (reference value: 1.70%); format: functional
[4] = system: A549; experiment: Induction of apoptosis in human A549 cells assessed as late apoptotic cells at 9 uM after 72 hrs by Annexin V-FITC/propidium iodide staining-based flow cytometric analysis (reference value: 1.24%); format: functional
[5] = Metabolic stability in mouse liver microsomes assessed as compound remaining at 1 uM measured up to 1 hr in presence of NADPH by LC-MS/MS analysis; format: ADME, Microsome; conditions: read-out: Stability
[6] = target: Discoidin domain-containing receptor 2 (Homo sapiens) (UniProt Q16832); experiment: Inhibition of recombinant GST-tagged human DDR2 (427 to 855 residues) expressed in baculovirus expression system at 0.5 uM after 1 hr by Lantha screen assay relative to control
[7] = target: Mast/stem cell growth factor receptor Kit (Homo sapiens) (UniProt P10721); experiment: Inhibition of recombinant His-tagged human KIT (544 to 976 residues) expressed in baculovirus expression system at 0.5 uM using tyr 06 as substrate in presence of ATP at Km concentration after 1 hr by Z'-LYTE assay relative to control
Sequence of Mast/stem cell growth factor receptor Kit (Homo sapiens) (P10721 whole entry, the tested form may be a part): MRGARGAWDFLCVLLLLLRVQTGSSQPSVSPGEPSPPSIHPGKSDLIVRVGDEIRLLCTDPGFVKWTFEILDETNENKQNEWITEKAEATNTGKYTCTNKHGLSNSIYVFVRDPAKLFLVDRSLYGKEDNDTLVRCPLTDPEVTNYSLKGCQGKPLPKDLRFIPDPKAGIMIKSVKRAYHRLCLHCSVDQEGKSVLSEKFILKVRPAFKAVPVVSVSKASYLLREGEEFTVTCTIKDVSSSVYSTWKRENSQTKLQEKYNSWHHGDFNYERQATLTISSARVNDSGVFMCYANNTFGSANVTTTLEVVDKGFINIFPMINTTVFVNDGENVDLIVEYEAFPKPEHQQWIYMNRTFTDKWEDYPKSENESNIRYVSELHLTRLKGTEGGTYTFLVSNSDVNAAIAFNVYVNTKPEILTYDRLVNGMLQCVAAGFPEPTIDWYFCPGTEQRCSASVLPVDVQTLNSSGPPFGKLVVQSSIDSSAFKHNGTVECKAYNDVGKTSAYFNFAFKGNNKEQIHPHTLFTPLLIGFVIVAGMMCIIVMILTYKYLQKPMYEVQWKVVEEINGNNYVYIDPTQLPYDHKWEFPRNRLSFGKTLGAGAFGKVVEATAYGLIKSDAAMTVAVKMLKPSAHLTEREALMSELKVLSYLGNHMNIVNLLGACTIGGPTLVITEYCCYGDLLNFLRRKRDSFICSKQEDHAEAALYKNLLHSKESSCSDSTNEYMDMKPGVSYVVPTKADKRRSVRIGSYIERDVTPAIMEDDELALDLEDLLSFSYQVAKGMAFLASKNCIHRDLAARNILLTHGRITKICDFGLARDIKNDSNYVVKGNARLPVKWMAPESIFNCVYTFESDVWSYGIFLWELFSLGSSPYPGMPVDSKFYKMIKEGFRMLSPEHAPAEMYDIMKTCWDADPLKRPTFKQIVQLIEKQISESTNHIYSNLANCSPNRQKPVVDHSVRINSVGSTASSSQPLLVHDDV

[8] = target: Proto-oncogene tyrosine-protein kinase receptor Ret (Homo sapiens) (UniProt P07949); experiment: Inhibition of recombinant GST-tagged human RET (658 to 1114 residues) expressed in baculovirus expression system at 0.5 uM using tyr 02 as substrate in presence of ATP at Km concentration after 1 hr by Z'-LYTE assay relative to control
Sequence of Proto-oncogene tyrosine-protein kinase receptor Ret (Homo sapiens) (P07949 whole entry, the tested form may be a part): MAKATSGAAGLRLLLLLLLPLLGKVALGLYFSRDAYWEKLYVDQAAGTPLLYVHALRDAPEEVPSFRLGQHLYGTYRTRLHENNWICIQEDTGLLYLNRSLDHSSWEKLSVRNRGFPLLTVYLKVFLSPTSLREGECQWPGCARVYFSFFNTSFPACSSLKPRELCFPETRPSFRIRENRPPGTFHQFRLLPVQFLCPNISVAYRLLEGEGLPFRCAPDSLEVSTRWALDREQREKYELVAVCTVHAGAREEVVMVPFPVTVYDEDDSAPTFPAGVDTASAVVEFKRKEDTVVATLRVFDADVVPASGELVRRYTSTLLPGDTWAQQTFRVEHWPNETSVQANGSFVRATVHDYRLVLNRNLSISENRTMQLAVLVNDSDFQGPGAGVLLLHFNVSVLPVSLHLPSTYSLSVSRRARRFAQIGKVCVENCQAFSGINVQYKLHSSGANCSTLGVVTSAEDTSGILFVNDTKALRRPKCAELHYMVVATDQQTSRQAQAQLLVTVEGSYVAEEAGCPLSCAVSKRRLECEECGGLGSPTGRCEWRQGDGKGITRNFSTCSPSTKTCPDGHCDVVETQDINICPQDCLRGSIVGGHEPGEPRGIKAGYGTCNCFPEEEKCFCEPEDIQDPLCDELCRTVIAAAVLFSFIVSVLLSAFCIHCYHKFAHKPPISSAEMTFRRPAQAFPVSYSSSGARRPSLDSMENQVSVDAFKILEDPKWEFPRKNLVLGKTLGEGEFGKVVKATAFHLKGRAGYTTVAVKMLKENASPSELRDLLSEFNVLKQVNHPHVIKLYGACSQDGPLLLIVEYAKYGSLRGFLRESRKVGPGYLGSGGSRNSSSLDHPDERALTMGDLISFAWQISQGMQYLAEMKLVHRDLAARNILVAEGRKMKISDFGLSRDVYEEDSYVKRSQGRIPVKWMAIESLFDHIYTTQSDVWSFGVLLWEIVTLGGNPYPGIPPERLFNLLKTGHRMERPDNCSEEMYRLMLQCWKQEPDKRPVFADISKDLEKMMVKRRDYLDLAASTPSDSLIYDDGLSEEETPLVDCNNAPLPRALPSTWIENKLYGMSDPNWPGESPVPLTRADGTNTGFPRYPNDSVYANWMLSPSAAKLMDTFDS

[9] = target: CYP2C9 (Homo sapiens, UniProt P11712); experiment: Inhibition of CYP2C9 in human pooled liver microsomes at 10 uM using diclofenac as substrate preincubated for 10 mins followed by NADPH addition and measured after 15 mins by LC/MS/MS analysis relative to control; format: ADME; conditions: probe diclofenac
Sequence of CYP2C9 (P11712 whole entry): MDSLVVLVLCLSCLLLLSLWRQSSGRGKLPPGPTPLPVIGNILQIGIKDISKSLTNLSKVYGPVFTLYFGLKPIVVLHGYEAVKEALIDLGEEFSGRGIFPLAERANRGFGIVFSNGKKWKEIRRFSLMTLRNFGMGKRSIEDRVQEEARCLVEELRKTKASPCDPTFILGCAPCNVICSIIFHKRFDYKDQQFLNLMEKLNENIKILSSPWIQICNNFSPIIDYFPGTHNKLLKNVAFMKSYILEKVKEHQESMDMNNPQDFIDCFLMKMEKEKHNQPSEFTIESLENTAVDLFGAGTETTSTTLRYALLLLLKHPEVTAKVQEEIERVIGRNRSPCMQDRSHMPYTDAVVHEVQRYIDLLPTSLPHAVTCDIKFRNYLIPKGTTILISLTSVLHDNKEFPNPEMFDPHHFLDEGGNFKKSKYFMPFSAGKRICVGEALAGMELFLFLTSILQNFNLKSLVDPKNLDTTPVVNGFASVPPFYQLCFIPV

[10] = system: A549; experiment: Induction of apoptosis in human A549 cells assessed as early apoptotic cells at 3 uM after 72 hrs by Annexin V-FITC/propidium iodide staining-based flow cytometric analysis (reference value: 2.40%); format: functional
[11] = target: RAC-alpha serine/threonine-protein kinase (Homo sapiens) (UniProt P31749); experiment: Inhibition of recombinant full-legth His-tagged human AKT1 expressed in baculovirus expression system at 0.5 uM using Ser/Thr 06 as substrate in presence of ATP at Km concentration after 1 hr by Z'-LYTE assay relative to control
[12] = target: Receptor tyrosine-protein kinase erbB-2 (Homo sapiens) (UniProt P04626); experiment: Inhibition of recombinant His-tagged human HER2 (676 to 1255 residues) expressed in baculovirus expression system at 0.5 uM using tyr 06 as substrate in presence of ATP at Km concentration after 1 hr by Z'-LYTE assay relative to control
Sequence of Receptor tyrosine-protein kinase erbB-2 (Homo sapiens) (P04626 whole entry, the tested form may be a part): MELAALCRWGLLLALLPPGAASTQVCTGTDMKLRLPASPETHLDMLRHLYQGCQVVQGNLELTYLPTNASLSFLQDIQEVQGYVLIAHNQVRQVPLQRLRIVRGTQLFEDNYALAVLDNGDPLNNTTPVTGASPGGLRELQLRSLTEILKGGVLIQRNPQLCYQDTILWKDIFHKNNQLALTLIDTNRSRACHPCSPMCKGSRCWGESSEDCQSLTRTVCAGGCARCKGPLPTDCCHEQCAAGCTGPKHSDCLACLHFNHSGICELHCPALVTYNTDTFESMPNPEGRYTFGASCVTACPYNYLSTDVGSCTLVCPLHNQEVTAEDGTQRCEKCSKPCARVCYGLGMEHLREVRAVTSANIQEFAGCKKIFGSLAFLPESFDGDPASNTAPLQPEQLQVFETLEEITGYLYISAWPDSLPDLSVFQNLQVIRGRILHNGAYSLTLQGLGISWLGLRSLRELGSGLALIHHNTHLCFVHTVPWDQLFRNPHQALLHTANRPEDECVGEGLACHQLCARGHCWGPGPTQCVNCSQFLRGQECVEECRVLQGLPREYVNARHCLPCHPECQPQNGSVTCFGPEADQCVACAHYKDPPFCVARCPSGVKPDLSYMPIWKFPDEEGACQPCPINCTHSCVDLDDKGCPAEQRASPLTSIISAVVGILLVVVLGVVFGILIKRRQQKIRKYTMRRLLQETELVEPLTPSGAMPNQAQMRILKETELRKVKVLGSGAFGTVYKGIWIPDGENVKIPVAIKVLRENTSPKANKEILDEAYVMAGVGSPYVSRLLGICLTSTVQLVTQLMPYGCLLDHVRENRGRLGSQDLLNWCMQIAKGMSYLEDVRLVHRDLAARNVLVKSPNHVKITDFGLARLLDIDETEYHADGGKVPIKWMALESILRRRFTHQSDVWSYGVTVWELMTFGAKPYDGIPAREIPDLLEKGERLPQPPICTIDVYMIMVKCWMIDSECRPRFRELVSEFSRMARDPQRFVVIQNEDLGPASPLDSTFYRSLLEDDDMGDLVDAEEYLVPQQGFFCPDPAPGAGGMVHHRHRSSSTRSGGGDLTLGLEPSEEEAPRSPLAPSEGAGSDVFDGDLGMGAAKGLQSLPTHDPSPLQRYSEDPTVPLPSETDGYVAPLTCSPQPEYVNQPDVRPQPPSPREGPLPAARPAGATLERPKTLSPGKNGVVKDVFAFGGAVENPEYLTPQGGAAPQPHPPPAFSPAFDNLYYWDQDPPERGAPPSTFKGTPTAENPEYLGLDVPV

[13] = system: A549; experiment: Induction of apoptosis in human A549 cells assessed as early apoptotic cells at 1 uM after 72 hrs by Annexin V-FITC/propidium iodide staining-based flow cytometric analysis (reference value: 2.40%); format: functional
[14] = system: A549; experiment: Induction of apoptosis in human A549 cells assessed as late apoptotic cells at 3 uM after 72 hrs by Annexin V-FITC/propidium iodide staining-based flow cytometric analysis (reference value: 1.24%); format: functional
[15] = target: Tyrosine-protein kinase BTK (Homo sapiens) (UniProt Q06187); experiment: Inhibition of recombinant full-legth His-tagged human BTK expressed in baculovirus expression system at 0.5 uM using tyr 01 as substrate in presence of ATP at Km concentration after 1 hr by Z'-LYTE assay relative to control
[16] = target: Vascular endothelial growth factor receptor 2 (Homo sapiens) (UniProt P35968); experiment: Inhibition of recombinant His-tagged human KDR cytoplasmic domain (789 to 1356 residues) expressed in baculovirus expression system at 0.5 uM using tyr 01 as substrate in presence of ATP at Km concentration after 1 hr by Z'-LYTE assay relative to control
[17] = target: Receptor-type tyrosine-protein kinase FLT3 (Homo sapiens) (UniProt P36888); experiment: Inhibition of recombinant His-tagged human FLT3 (564 to 958 residues) expressed in baculovirus expression system at 0.5 uM using tyr 02 as substrate in presence of ATP at Km concentration after 1 hr by Z'-LYTE assay relative to control
Sequence of Receptor-type tyrosine-protein kinase FLT3 (Homo sapiens) (P36888 whole entry, the tested form may be a part): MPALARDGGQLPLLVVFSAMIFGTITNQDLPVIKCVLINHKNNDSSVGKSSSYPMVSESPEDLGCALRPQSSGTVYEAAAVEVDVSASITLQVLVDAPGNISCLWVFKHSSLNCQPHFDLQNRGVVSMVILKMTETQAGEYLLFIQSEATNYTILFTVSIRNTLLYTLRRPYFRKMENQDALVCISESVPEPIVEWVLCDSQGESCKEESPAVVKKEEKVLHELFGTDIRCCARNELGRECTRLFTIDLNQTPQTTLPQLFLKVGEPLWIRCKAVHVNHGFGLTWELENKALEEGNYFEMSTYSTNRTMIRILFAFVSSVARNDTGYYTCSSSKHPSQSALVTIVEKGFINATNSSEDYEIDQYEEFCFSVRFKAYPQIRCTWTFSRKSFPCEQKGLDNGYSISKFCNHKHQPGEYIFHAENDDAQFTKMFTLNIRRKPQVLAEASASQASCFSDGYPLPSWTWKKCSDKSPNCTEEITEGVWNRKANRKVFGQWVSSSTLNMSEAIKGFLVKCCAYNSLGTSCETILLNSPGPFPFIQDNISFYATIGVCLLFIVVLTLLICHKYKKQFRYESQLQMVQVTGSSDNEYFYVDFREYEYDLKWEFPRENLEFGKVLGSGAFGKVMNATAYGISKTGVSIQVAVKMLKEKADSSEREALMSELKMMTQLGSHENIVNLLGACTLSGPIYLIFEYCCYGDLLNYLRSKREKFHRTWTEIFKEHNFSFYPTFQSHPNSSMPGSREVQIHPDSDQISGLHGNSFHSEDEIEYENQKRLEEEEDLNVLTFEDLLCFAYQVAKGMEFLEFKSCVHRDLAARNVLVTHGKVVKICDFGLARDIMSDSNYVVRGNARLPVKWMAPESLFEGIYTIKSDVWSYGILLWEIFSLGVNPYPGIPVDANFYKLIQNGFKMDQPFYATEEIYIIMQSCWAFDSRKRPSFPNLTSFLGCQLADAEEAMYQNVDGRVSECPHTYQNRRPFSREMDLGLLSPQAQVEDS

[18] = Half life in rat liver microsomes at 1 uM measured up to 1 hr by LC-MS/MS analysis; format: ADME, Microsome
[19] = target: Tyrosine-protein kinase SYK (Homo sapiens) (UniProt P43405); experiment: Inhibition of recombinant full length GST-tagged human SYK expressed in baculovirus expression system at 0.5 uM using tyr 02 as substrate in presence of ATP at Km concentration after 1 hr by Z'-LYTE assay relative to control
[20] = target: Serine/threonine-protein kinase mTOR (Homo sapiens) (UniProt P42345); experiment: Inhibition of recombinant GST-tagged human mTOR catalytic domain (1360 to 2549 residues) expressed in baculovirus expression system at 0.5 uM using Ser/Thr 11 as substrate in presence of ATP at Km concentration after 1 hr by Z'-LYTE assay relative to control
[21] = system: A549; experiment: Induction of apoptosis in human A549 cells assessed as necrotic cells at 1 uM after 72 hrs by Annexin V-FITC/propidium iodide staining-based flow cytometric analysis (reference value: 1.70%); format: functional
[22] = Metabolic stability in rat liver microsomes assessed as compound remaining at 1 uM measured up to 1 hr in absence of NADPH by LC-MS/MS analysis; format: ADME, Microsome; conditions: read-out: Stability
[23] = target: Hepatocyte growth factor receptor (Homo sapiens) (UniProt P08581); experiment: Inhibition of recombinant full length N-terminal His-tagged human cMET cytoplasmic domain (956 to 1390 residues) expressed in baculovirus expression system at 0.5 uM using tyr 06 as substrate in presence of ATP at Km concentration after 1 hr by Z'-LYTE assay relative to control
[24] = target: CDK2/Cyclin A2 (Homo sapiens) (UniProt P24941+P20248); experiment: Inhibition of recombinant full-legth His-tagged human CDK2/CyclinA expressed in baculovirus expression system at 0.5 uM using Ser/Thr 12 as substrate in presence of ATP at Km concentration after 1 hr by Z'-LYTE assay relative to control
[25] = Metabolic stability in human liver microsomes assessed as compound remaining at 1 uM measured up to 1 hr in absence of NADPH by LC-MS/MS analysis; format: ADME, Microsome; conditions: read-out: Stability
[26] = system: MDA-MB-231; experiment: cells; conditions: Homo sapiens, MDA-MB-231, 72 h
Description: Antiproliferative activity against human MDA-MB-231 cells assessed as reduction in cell viability after 72 hrs by MTT assay

COc1cc(C(=O)NC2CCNCC2)ccc1Nc1nc(Nc2ccccc2P(C)(C)=O)c2cc[nH]c2n1
inhibition [1]: 2% | Activity [2]: Dose-dependent effect | Activity [3]: 4.72% | Activity [4]: 36.59% | remaining at 1 h, 1 µM [5]: 75.4% | inhibition [6]: 1% | inhibition [7]: 2% | inhibition [8]: 10% | inhibition at 0.25 h, 10 µM [9]: 11.5% | Activity [10]: 17.3% | inhibition [11]: 0% | inhibition [12]: 12% | Activity [13]: 13.27% | Activity [14]: 25.09% | inhibition [15]: 0% | inhibition [16]: 1% | inhibition [17]: 13% | half-life at 1 µM [18]: > 2.42 h | inhibition [19]: 73% | inhibition [20]: 0% | Activity [21]: 6.37% | remaining at 1 h, 1 µM [22]: 76.3% | inhibition [23]: -2% | inhibition [24]: 1% | remaining at 1 h, 1 µM [25]: 81.2% | IC50 [26]: 17.4 µM
